# Test results as given in US20230204599A1, “TRIAGING METHOD USING CELL FREE NUCLEOSOME LEVELS” (Belgian Volition SRL (BE/BE), priority 2020, published 2023).
# Experiments:
# [1] = cited from earlier work
# sepsis induced in mice = conditions: cited from earlier work
# [2] = tested on: white cells in fresh healthy whole blood; assay: NETs formation induced in fresh healthy whole blood, H3.1-nucleosome ELISA and Bioanalyzer electrophoresis of plasma; assay type: cell-based, human; conditions: 2 healthy volunteers
# Text: We collected whole blood samples from two healthy volunteers, in whom low levels of circulating NET material would be expected, in EDTA plasma blood collection tubes and in heparin plasma blood collection tubes. The two EDTA plasma blood collection tubes were centrifuged immediately to separate the cellular and plasma fractions to minimise contamination by large chromatin (including NET material) and the plasma was transferred to cryotubes and frozen. The two heparin plasma blood collection tubes were incubated at room temperature for 1 hour with gentle rotation of the tubes. The tubes were then centrifuged and the plasma was transferred to cryotubes and frozen.
# The samples were assayed for nucleosomes containing histone isoform H3.1 (H3.1-nucleosomes) using an ELISA procedure in duplicate. In brief, 20 μl of sample were added to a microtiter well containing magnetic particles precoated with an anti-histone H3.1 antibody. The sample was incubated and the magnetic particles were isolated and washed. An anti-nucleosome antibody directed to bind to a conformational nucleosome epitope conjugated to horse radish peroxidase was added to the magnetic particles. The particles were incubated and then isolated and washed. The bound anti-nucleosome antibody was measured using a coloured substrate reaction. […]
# [3] = single 25 mg/m^2 bolus intravenous dose
compound,measurement,setting,value
COc1cccc2c1C(=O)c1c(O)c3c(c(O)c1C2=O)C[C@@](O)(C(=O)CO)C[C@@H]3O[C@H]1C[C@H](N)[C@H](O)[C@H](C)O1 [doxorubicin],serum concentration,[1]; [3],10000 ng/mL
same,time serum level remains above 3 μg/ml,[1]; [3],around 4 days
COc1cccc2c1C(=O)c1c(O)c3c(c(O)c1C2=O)C[C@@](O)(C(=O)CO)C[C@@H]3O[C@H]1C[C@H](N)[C@@H](O)[C@H](C)O1 [epirubicin],survival,"sepsis induced in mice; lethal sepsis by cecal ligation and puncture, death in 100% of mice within 72 hours without treatment",75%
same,inflammation measured by circulating inflammatory biomarkers,sepsis induced in mice; septic mice,reduction in inflammation
DNase,half-life,"[1]; in vivo, iv",3 to 4 h
heparin,NET material level in plasma (H3.1-nucleosome ELISA),[2]; blood collection tubes incubated 1 hour at room temperature,high
same,"level of NET material in plasma (DNA fragment size, Bioanalyzer)",[2]; retention time approximately 110 seconds,high
